The supplement of paper PMC10307832

Tests used:
Assay in all cases: relative viability (nuclei count vs DMSO), 5 days (fraction); higher = more cells survive
[1] = compound: Cc1ccc2nc(NCCN)c3ncc(C)n3c2c1 + Cc1nc(NC(=O)N2CCC[C@H]2C(N)=O)sc1-c1ccnc(C(C)(C)C(F)(F)F)c1 [Alpelisib] (partner 2 µM)
Procedure, shortened: (§1)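 Relative viability equals treated-well nuclei counts divided by vehicle-well nuclei counts. Counts came from 4× images of lung cancer cell lines grown in 1536-well plates for 5 days after pin-tool dosing on the day after seeding. Dosing used one drug alone or a fixed anchor-drug dose plus five library-drug doses (not always all listed) in √10 steps, and values are medians of duplicate plates.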

[2] = compound: Cc1ccc2nc(NCCN)c3ncc(C)n3c2c1 + O=C(c1cc(Cc2n[nH]c(=O)c3ccccc23)ccc1F)N1CCN(C(=O)C2CC2)CC1 [Olaparib] (partner 8 µM)
Procedure, shortened: as §1

[3] = compound: O=C(/C=C/c1ccccc1)NC(NC(=S)Nc1cccc2cccnc12)C(Cl)(Cl)Cl [Salubrinal] + CC(C)C[C@H](NC(=O)[C@H](Cc1ccccc1)NC(=O)c1cnccn1)B(O)O [Bortezomib] (partner 0.002 µM)
Procedure, shortened: as §1

[4] = compound: O=C(/C=C/c1ccccc1)NC(NC(=S)Nc1cccc2cccnc12)C(Cl)(Cl)Cl [Salubrinal] + C[C@]1(O)C[C@@H](c2nc(-c3ccc4ccc(-c5ccccc5)nc4c3)c3c(N)nccn32)C1 [Linsitinib] (partner 1 µM)
Procedure, shortened: as §1

Cell Line	relative viability ([1]; first compound 0.04 µM)	relative viability ([1]; first compound 0.1265 µM)	relative viability ([1]; first compound 0.4 µM)	relative viability ([1]; first compound 1.265 µM)	relative viability ([1]; first compound 4 µM)	relative viability ([2]; first compound 0.04 µM)	relative viability ([2]; first compound 0.1265 µM)	relative viability ([2]; first compound 0.4 µM)	relative viability ([2]; first compound 1.265 µM)	relative viability ([2]; first compound 4 µM)	relative viability ([3]; first compound 0.08 µM)	relative viability ([3]; first compound 0.253 µM)	relative viability ([3]; first compound 0.8 µM)	relative viability ([3]; first compound 2.53 µM)	relative viability ([3]; first compound 8 µM)	relative viability ([4]; first compound 0.08 µM)	relative viability ([4]; first compound 0.253 µM)	relative viability ([4]; first compound 0.8 µM)	relative viability ([4]; first compound 2.53 µM)	relative viability ([4]; first compound 8 µM)
HCC-44	0.776	0.787	0.786	0.711	0.769	0.999	0.96	0.955	1	0.977	0.799	0.817	0.997	0.922	0.86	0.761	0.754	0.731	0.703	0.65
HCC-827	0.964	1.02	0.941	0.958	0.905	0.689	0.73	0.661	0.639	0.607	0.98	0.955	1.23	1.05	1.07	0.992	0.9	1	0.97	0.941
NCI-H2342	–	–	–	–	–	0.593	0.439	0.453	0.411	0.503	–	–	–	–	–	–	–	–	–	–
NCI-H2347	1.06	0.978	1.06	0.91	1.01	0.601	0.566	0.485	0.525	0.501	1.05	1.04	0.998	1.17	1.04	1.06	1	1.06	1.15	0.963
PC-14	1.03	0.893	0.92	0.896	0.806	0.278	0.324	0.241	0.261	0.127	0.94	0.639	0.979	1	0.874	1.02	0.899	1.06	0.975	0.892
NCI-H1651	0.996	0.885	0.905	0.936	0.834	0.178	0.181	0.179	0.18	0.175	0.972	0.925	0.994	0.925	0.921	1.09	0.692	1.06	–	0.968
HARA	0.839	0.831	0.804	0.715	0.788	0.73	0.782	0.791	0.759	0.365	1.14	1.01	1.16	1.13	1.06	1.09	0.905	0.936	0.898	0.99
NCI-H1650	–	–	–	–	–	0.647	0.804	0.715	0.821	0.549	0.217	0.227	0.256	0.173	0.243	–	–	–	–	–
NCI-H1395	1.05	1.3	1.08	1.19	0.888	0.47	0.467	0.491	0.429	0.437	–	–	–	–	–	1.31	1.12	1.09	0.998	1.15
LU99A	0.59	0.539	0.576	0.609	0.464	0.322	0.319	0.288	0.29	0.258	1.3	1.31	1.37	0.971	0.909	0.611	0.545	0.579	0.59	0.515
NCI-H1355	0.783	0.862	0.819	0.763	0.797	0.79	0.72	0.754	0.764	0.659	1.32	1.15	1.2	1.32	1.22	0.976	0.797	0.856	0.89	0.751
HCC-78	0.338	0.337	0.288	0.309	0.308	0.746	0.861	0.655	0.587	0.766	0.516	0.579	0.521	0.537	0.427	0.59	0.558	0.796	0.481	0.508
NCI-H1563	0.902	0.962	1.07	1.13	0.905	–	–	–	–	–	0.791	0.937	0.859	0.844	0.776	1.1	1.26	1.14	1.21	1.12
HCC-15	0.879	0.906	0.93	0.868	0.814	0.648	0.752	0.7	0.75	0.622	1.13	0.804	1.14	1.15	0.997	0.946	0.801	0.952	0.964	0.87
EKVX	0.962	0.856	0.83	0.808	0.778	0.941	0.82	0.775	0.706	0.737	1.14	0.821	1.17	1.06	1.02	1.4	0.744	1.15	1.01	0.856
NCI-H2087	1.07	1.15	0.998	0.963	0.998	0.671	0.522	0.609	0.691	0.589	0.755	0.458	0.855	0.809	0.989	1.01	0.942	0.98	0.782	1.02
LK-2	1.07	1.08	0.935	1.05	0.864	0.707	0.778	0.706	0.757	0.672	–	–	–	–	–	0.558	0.521	0.762	0.757	0.723
NCI-H1437	0.926	0.914	1.02	0.904	0.907	0.641	0.613	0.616	0.643	0.553	0.667	0.474	0.68	0.535	0.465	1.27	0.691	1.19	1.06	0.853
COR-L23	0.904	0.663	0.916	0.809	0.495	0.348	0.351	0.397	0.321	0.328	1.16	0.786	1.12	0.998	0.809	1.16	0.676	1.24	1	0.888
ABC-1	1.15	1.27	1.18	1.15	0.742	0.781	0.785	0.639	0.691	1.04	0.322	0.35	0.363	0.303	0.281	0.802	0.753	0.76	0.952	0.781

Cell Line	relative viability ([1]; first compound 0.04 µM)	relative viability ([1]; first compound 0.1265 µM)	relative viability ([1]; first compound 0.4 µM)	relative viability ([1]; first compound 1.265 µM)	relative viability ([1]; first compound 4 µM)	relative viability ([2]; first compound 0.04 µM)	relative viability ([2]; first compound 0.1265 µM)	relative viability ([2]; first compound 0.4 µM)	relative viability ([2]; first compound 1.265 µM)	relative viability ([2]; first compound 4 µM)	relative viability ([3]; first compound 0.08 µM)	relative viability ([3]; first compound 0.253 µM)	relative viability ([3]; first compound 0.8 µM)	relative viability ([3]; first compound 2.53 µM)	relative viability ([3]; first compound 8 µM)	relative viability ([4]; first compound 0.08 µM)	relative viability ([4]; first compound 0.253 µM)	relative viability ([4]; first compound 0.8 µM)	relative viability ([4]; first compound 2.53 µM)	relative viability ([4]; first compound 8 µM)
SK-MES-1	0.904	0.848	0.846	0.866	0.848	0.716	0.736	0.745	0.669	0.468	–	–	–	–	–	1.12	1.04	1.05	1.07	1.08
NCI-H838	1.01	0.961	0.938	0.883	0.899	0.791	0.717	0.709	0.759	0.696	0.82	0.749	0.983	0.911	0.608	1.25	0.722	1.08	1.13	0.98
SW 900	–	–	–	–	–	–	0.865	0.884	0.874	0.827	–	–	–	–	–	–	–	–	–	–
A549	0.978	0.741	0.722	1.01	0.611	0.409	0.406	0.333	0.317	0.301	–	–	–	–	–	0.709	0.568	0.669	0.558	0.54
A-427	1.09	1.13	1.05	1.07	1.14	0.723	0.672	0.693	0.711	0.63	0.96	0.908	1.12	0.961	1.06	1.12	1.2	1.1	1.08	1.22
NCI-H1792	0.696	0.678	0.615	0.527	0.661	0.499	0.279	–	0.458	0.295	1.2	–	1.23	0.92	0.806	0.805	–	0.606	0.482	0.457
LCLC-97TM1	0.321	0.241	0.225	0.183	0.194	0.491	0.428	0.462	0.417	0.338	0.995	–	1.22	0.626	0.637	0.222	0.214	0.221	–	0.243
NCI-H1703	0.472	0.36	0.275	0.388	0.348	0.393	0.362	0.619	0.47	0.437	0.365	0.268	0.242	0.322	0.293	0.515	0.997	0.712	0.685	0.644
LCLC-103H	0.996	0.938	0.94	0.884	0.991	0.752	0.748	0.778	0.743	0.739	0.97	0.971	1.2	1	1.15	1.14	1	1.02	1.22	1.01
PC-3 [JPC-3]	1.03	1.08	1.05	0.983	1.03	1.23	1.09	1.13	1.11	1.02	0.775	0.718	0.89	0.863	0.75	0.927	0.999	0.982	0.928	0.937
BEN	1.06	0.787	1.09	0.807	1.19	1.17	1.18	1.07	1.04	1.24	0.716	0.721	0.979	0.941	0.909	1.15	0.624	1.23	0.931	0.892
NCI-H1666	0.836	0.906	1.13	0.945	0.613	0.719	0.755	0.751	0.76	0.749	0.858	0.732	0.746	0.776	0.984	0.78	0.777	0.869	0.735	0.797
ChaGo-K-1	–	–	–	–	–	0.411	0.458	0.412	0.426	0.402	1.06	0.759	1.6	1.2	1.03	–	–	–	–	–
NCI-H1944	0.821	0.832	0.869	0.823	0.909	0.388	0.387	0.403	0.397	0.388	–	–	–	–	–	1.28	1.23	1.34	1.17	1.15
NCI-H1648	–	–	–	–	–	1.08	0.846	0.789	0.843	0.666	–	–	–	–	–	–	–	–	–	–
NCI-H358	0.844	0.835	0.902	0.952	0.626	0.646	0.644	0.603	0.607	0.517	–	–	–	–	–	0.77	0.693	0.76	0.773	0.637
NCI-H522	–	–	–	–	–	0.62	0.708	0.585	0.648	0.635	–	–	–	–	–	–	–	–	–	–
NCI-H2170	0.844	0.805	0.801	0.805	0.67	0.627	0.702	0.56	0.549	0.637	–	–	–	–	–	–	–	–	–	–
NCI-H1793	0.707	0.677	0.637	0.654	0.693	1.06	0.812	0.836	0.651	0.795	–	–	–	–	–	1.1	0.798	1.04	0.795	0.636
